Laboratory results: US20080176264A1, “Osteoclast Culture Vessels and Methods of Use” (priority 2004, published 2008)

System: primary human osteoclast precursors
Test: In vitro bone resorption assay in OSTEOASSAY plate (CTx collagen resorption product in supernatant, EIA)
Assay type: cell-based
Details: supernatants assayed after an additional 2 days, M-CSF and soluble RANK ligand
Protocol: OSTEOASSAY™ plates, which contain adherent particles (≦0.125 mm dimension) of native human bone, were seeded with 10,000 primary human osteoclast precursors (“Poietics™ Osteoclast Precursors,” product no. 2T-110, Cambrex Corporation) per well in medium containing M-CSF+/−soluble RANK ligand and cultured at 37° C. for 5-7 days. Culture media were changed on day 5, 6 or 7 and the cultures were continued for another 1 to 3 days.
The release into the culture supernatants of collagen type I peptides from the bone particles was measured quantitatively by enzyme immunoassay (EIA). Three different commercially available assay kits for the measurement of resorption-specific collagen resorption fragments were evaluated: the METRA™ Helical Peptide EIA kit (Quidel), the Serum CROSSLAPS® ELISA (Nordic Bioscience) kit, and the OSTEOMARK® NTx (Ostex) kit. In some experiments, the OSTEOASSAY™ plate was compared to dentin discs (ALPCO Diagnostics). In other assays, primary human osteoclast precursors were exposed to inhibitors of osteoclast function (alendronate or calcitonin) for 48-72 hours and then assayed for bone resorptive activity.
Primary human osteoclast precursors were seeded at 10,000 cells/well and cultured in medium containing M-CSF and soluble RANK ligand. After 5 days of culture, the medium was renewed +/−1 nM calcitonin or +/−various concentrations of alendronate. […]

Row | Molecule | IC50 (Homo sapiens, Osteoclast, various concentrations added after 5 days of culture, FIG. 4, read-out: IC50 for inhibition of bone resorption (CTx collagen resorption product)) | inhibition of in vitro bone resorption (CTx collagen resorption product) (1 nM calcitonin added after 5 days of culture, FIG. 3)
1 | NCCCC(O)(P(=O)(O)O)P(=O)(O)O [alendronate] | ~1 µM | 
2 | calcitonin |  | effectively inhibits in vitro bone resorption
